IC50 data for 25 molecules are collected here from patent US10183928B2, “Inhibitors of RET” (BLUEPRINT MEDICINES CORPORATION, priority 2016, dated 2019).

Structures are written as SMILES. Some results are limits rather than exact numbers.

For the experiment, the target named is wild type RET (Homo sapiens (Human), UniProt P07949). Description: RET Wild Type Assay at KM (Caliper electrophoretic mobility shift). It is filed as biochemical. Particulars: 25 μM ATP, 25° C., 120 minutes; read-out: Wild-type RET (RET Inhibitory Activity).
Chain of wild type RET (P07949 29-1114): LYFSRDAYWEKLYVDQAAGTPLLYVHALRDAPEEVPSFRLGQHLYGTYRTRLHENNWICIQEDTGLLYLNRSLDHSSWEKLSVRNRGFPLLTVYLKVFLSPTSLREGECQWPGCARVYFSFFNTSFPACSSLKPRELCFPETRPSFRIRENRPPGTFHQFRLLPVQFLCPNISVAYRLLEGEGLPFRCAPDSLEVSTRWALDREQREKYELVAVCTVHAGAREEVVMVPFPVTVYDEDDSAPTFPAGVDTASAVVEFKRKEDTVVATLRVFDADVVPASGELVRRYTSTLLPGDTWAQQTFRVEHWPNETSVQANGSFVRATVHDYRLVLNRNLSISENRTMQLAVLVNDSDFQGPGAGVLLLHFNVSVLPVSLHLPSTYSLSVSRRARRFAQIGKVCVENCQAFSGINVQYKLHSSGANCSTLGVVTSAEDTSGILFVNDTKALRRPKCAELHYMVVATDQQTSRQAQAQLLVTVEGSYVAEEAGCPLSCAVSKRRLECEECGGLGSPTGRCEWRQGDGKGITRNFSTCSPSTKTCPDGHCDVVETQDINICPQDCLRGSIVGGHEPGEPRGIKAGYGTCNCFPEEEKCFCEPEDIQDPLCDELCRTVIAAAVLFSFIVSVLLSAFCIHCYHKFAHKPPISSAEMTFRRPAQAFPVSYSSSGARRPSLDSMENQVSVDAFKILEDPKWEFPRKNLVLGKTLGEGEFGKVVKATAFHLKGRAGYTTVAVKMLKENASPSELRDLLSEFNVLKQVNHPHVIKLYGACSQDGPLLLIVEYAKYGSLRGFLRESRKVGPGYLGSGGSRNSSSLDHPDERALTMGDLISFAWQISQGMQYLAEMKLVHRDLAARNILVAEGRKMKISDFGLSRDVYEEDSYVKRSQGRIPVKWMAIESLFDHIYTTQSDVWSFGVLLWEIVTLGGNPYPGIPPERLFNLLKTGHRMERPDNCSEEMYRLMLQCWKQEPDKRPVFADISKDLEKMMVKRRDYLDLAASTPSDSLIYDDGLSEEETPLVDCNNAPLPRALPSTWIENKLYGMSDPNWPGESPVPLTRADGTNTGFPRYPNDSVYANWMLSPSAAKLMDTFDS
In the case of `Cc1cc(Nc2cc(C)[nH]n2)nc([C@H]2C[C@H](C(=O)NCc3ccc(-n4cccn4)nc3)C2)c1` [Compound 100], the IC50 is under 1 nM.

Turning to `Cc1cc(Nc2cc(C)[nH]n2)nc([C@H]2C[C@H](C(=O)N[C@H](C)c3ccc(-n4cccn4)nc3)C2)c1` [Compound 101], the IC50 was under 1 nM.

As to `Cc1cc(Nc2cc(C)[nH]n2)nc([C@H]2C[C@H](C(=O)N[C@@H](C)c3ccc(-n4cc(F)cn4)nc3)C2)c1` [Compound 102], the IC50 was under 1 nM.

Turning to `Cc1cc(Nc2cc(C)[nH]n2)nc([C@H]2C[C@@H](C(=O)N[C@@H](C)c3ccc(-n4cc(F)cn4)nc3)C2)c1` [Compound 103], the IC50 fell in the range of 10 to 100 nM.

As for `Cc1cc(Nc2cc(C)[nH]n2)nc([C@H]2C[C@H](C(=O)N[C@H](C)c3cnc(-n4cc(F)cn4)cn3)C2)c1` [Compound 104], the IC50 was under 1 nM.

As to `Cc1cc(Nc2cc(C)[nH]n2)nc([C@H]2C[C@H](C(=O)N[C@@H](C)c3ccc(-n4cc(F)cn4)nc3)C2)n1` [Compound 105], the IC50 is under 1 nM.

With `Cc1cc(Nc2cc(C)[nH]n2)nc([C@H]2C[C@@](C)(C(=O)N[C@@H](C)c3ccc(-n4cc(F)cn4)nc3)C2)n1` [Compound 107, (1S,3R)—N—((S)-1-(6-(4-fluoro-1H-pyrazol-1-yl)pyridin-3-yl)ethyl)-1-methyl-3-(4-methyl-6-((5-methyl-1H-pyrazol-3-yl)amino)pyrimidin-2-yl)cyclobutane-1-carboxamide], the IC50 was 1.01 to 10 nM.

For the molecule `Cc1cc(Nc2cc(C)[nH]n2)nc([C@H]2C[C@](C)(C(=O)N[C@@H](C)c3ccc(-n4cc(F)cn4)nc3)C2)n1` [Compound 108, (1R,3S)—N—((S)-1-(6-(4-fluoro-1H-pyrazol-1-yl)pyridin-3-yl)ethyl)-1-methyl-3-(4-methyl-6-((5-methyl-1H-pyrazol-3-yl)amino)pyrimidin-2-yl)cyclobutane-1-carboxamide], the IC50 is under 1 nM.

Regarding `Cc1cc(Nc2cc(C)[nH]n2)nc([C@]2(O)C[C@@H](C(=O)N[C@@H](C)c3ccc(-n4cc(F)cn4)nc3)C2)c1` [Compound 109], the IC50 is under 1 nM.

As for `Cc1cc(Nc2cc(C)[nH]n2)nc([C@H]2C[C@](C)(C(=O)N[C@@H](C)c3cnc(-n4cc(F)cn4)cn3)C2)n1` [Compound 110], the IC50 is under 1 nM.

With `Cc1cc(Nc2cc(C)[nH]n2)nc([C@]2(F)C[C@H](C(=O)N[C@@H](C)c3ccc(-n4cc(F)cn4)nc3)C2)c1` [Compound 113, (1S,3R)-3-fluoro-N—((S)-1-(6-(4-fluoro-1H-pyrazol-1-yl)pyridin-3-yl)ethyl)-3-(4-methyl-6-(5-methyl-1H-pyrazol-3-ylamino)pyridin-2-yl)cyclobutanecarboxamide], the IC50 fell in the range of 10 to 100 nM.

On to `Cc1cc(Nc2cc(C)[nH]n2)nc([C@]2(F)C[C@@H](C(=O)N[C@@H](C)c3ccc(-n4cc(F)cn4)nc3)C2)c1` [Compound 114], for which the IC50 fell in the range of 1.01 to 10 nM.

`Cc1cc(Nc2cc(C)[nH]n2)nc([C@]2(O)C[C@@H](C(=O)N(C)[C@@H](C)c3ccc(-n4cc(F)cn4)nc3)C2)c1` [Compound 116]: the IC50 fell in the range of 1.01 to 10 nM.

As to `CO[C@]1(c2cc(C)cc(Nc3cc(C)[nH]n3)n2)C[C@H](C(=O)N[C@@H](C)c2ccc(-n3cc(F)cn3)nc2)C1` [Compound 117, (1S,3R)—N—((S)-1-(6-(4-fluoro-1H-pyrazol-1-yl)pyridin-3-yl)ethyl)-3-methoxy-3-(4-methyl-6-((5-methyl-1H-pyrazol-3-yl)amino)pyridin-2-yl)cyclobutane-1-carboxamide], the IC50 is under 100 nM.

On to `Cc1cc(Nc2cc(C)[nH]n2)nc([C@]2(O)C[C@](C)(C(=O)N[C@@H](C)c3ccc(-n4cc(F)cn4)nc3)C2)c1` [Compound 118], for which the IC50 was under 100 nM.

For the molecule `Cc1cc(Nc2cc(C)[nH]n2)nc([C@]2(O)C[C@@](C)(C(=O)N[C@@H](C)c3ccc(-n4cc(F)cn4)nc3)C2)c1` [Compound 119], the IC50 was under 1 nM.

Turning to `CO[C@]1(C(=O)N[C@@H](C)c2ccc(-n3cc(F)cn3)nc2)C[C@H](c2cc(C)cc(Nc3cc(C)[nH]n3)n2)C1` [Compound 120], the IC50 was under 1 nM.

For `CO[C@]1(C(=O)N[C@@H](C)c2ccc(-n3cc(F)cn3)nc2)C[C@H](c2nc(C)cc(Nc3cc(C)[nH]n3)n2)C1` [Compound 121], the IC50 was under 1 nM.

Take `CO[C@]1(C(=O)N[C@@H](C)c2ccc(-n3cc(F)cn3)nc2)C[C@H](c2cc(C)nc(Nc3cc(C)[nH]n3)n2)C1` [Compound 122]: the IC50 was under 1 nM.

With `CO[C@]1(C(=O)N[C@@H](C)c2cnc(-n3cc(F)cn3)cn2)C[C@H](c2nc(C)cc(Nc3cc(C)[nH]n3)n2)C1` [Compound 123], the IC50 is under 1 nM.

`CO[C@]1(C(=O)N[C@@H](C)c2cnc(-n3cc(F)cn3)cn2)C[C@H](c2cc(C)nc(Nc3cc(C)[nH]n3)n2)C1` [Compound 124]: the IC50 was under 1 nM.

For the molecule `Cc1cc(Nc2cc(C)[nH]n2)nc([C@]2(F)C[C@](C)(C(=O)N[C@@H](C)c3ccc(-n4cc(F)cn4)nc3)C2)c1` [Compound 126], the IC50 was under 100 nM.

`CO[C@]1(C(=O)N[C@@H](C)c2ccc(-n3cc(F)cn3)nc2)C[C@](O)(c2cc(C)cc(Nc3cc(C)[nH]n3)n2)C1` [Compound 127]: the IC50 is under 1 nM.

Consider `CO[C@]1(C(=O)N[C@@H](C)c2ccc(-n3cc(F)cn3)nc2)C[C@@](O)(c2cc(C)cc(Nc3cc(C)[nH]n3)n2)C1` [Compound 128], for which the IC50 was under 100 nM.

With `CO[C@]1(C(=O)NCc2cnc(-n3cc(F)cn3)cn2)C[C@H](c2cc(C)nc(Nc3cc(C)[nH]n3)n2)C1` [Compound 131], the IC50 was in the range of 1.01 to 10 nM.
